One assay relates to CT26 tumours. Briefly: In vivo efficacy on growth of subcutaneous CT26 tumours. Also noted: species or system Balb/c mice. Particulars: daily ip α1-24, p<0.001. The protocol: Experiments were performed on six-week-old Balb/C mice weighing 15 g, obtained from Sheffield Field Laboratories. All experiments were approved by the Home Office Project Licence Number PPL50/1414.
The CT26 cell line was maintained by in vitro passage in Dulbecco's Minimal Eagles Medium containing 10% foetal calf serum, and 1% penicillin and streptomycin and maintained at 37° C. in humidified atmosphere of 5% CO2 in air. The cell line was routinely checked to ensure freedom from mycoplasma (Mycoplasma rapid detection system, Gena-Probe Incorporated, U.S.A.).
Animals were anaesthetised with an intraperitoneal injection of diazepam (0.5 mg/ml, Dumex Ltd.) and hypnorm (fentanyl citrate 0.0315 mg/ml and fluanisone 1 mg/ml, Janssen Pharmaceutical Ltd.) in the ratio of 1:1 at a volume of 0.1 ml/200 g body weight, with supplementation as required to maintain adequate anaesthesia. […] Tumour growth and animal weights were monitored daily.
Tumour growth was measured daily and when the majority of animals in the cohort had tumour volumes of >100 mm^3 but <350 mm^3 animals were divided into experimental and control groups. […]
Tumour volumes were assessed by calliper measurements of the perpendicular diameters and volumes estimated using the equation: […]
where a is the smaller and b the larger diameter Animals were weighed on a daily basis and the general well being monitored.

A further assay relates to SVEC4-10 cells. Briefly: Tubule formation assay on GF-reduced Matrigel, SVEC4-10 cells. In kind it is cell-based, Murine. Particulars: FIG. 4, 6 h. How it is done: Adult human dermal microvascular endothelial cells (HuDMECs) were obtained commercially (TCS Biologicals, Buckinghamshire, United Kingdom) and cultured in microvascular endothelial cell growth medium (EGM). This medium contains heparin (10 ng/ml), hydrocortisone, human epidermal growth factor (10 ng/ml), human fibroblast growth factor (10 ng/ml) (such endothelial growth factors are necessary for routine passaging of HuDMECs in culture) and dibutyryl cyclic AMP. This was supplemented with 5% heat-inactivated FCS, 50 μg/ml gentamicin and 50 ng/ml amphotericin B (TCS Biologicals, United Kingdom). Murine endothelial cells (SVEC 4-10) were obtained from the ATCC and cultured in DMEM+10% FCS. Cells were grown at 37° C. in a 100% humidified incubator with a gas phase of 5% CO2 and routinely screened for Mycoplasma. Prior to their use in the assays indicated below, HuDMECs were grown to 80% confluency, incubated in DMEM+1% FCS for 2 h, then harvested with 0.05% trypsin solution, washed twice and resuspended to the cell density required for each assay (see below).
24 well plates were coated with 30 μl/well of growth factor-reduced (GF-reduced) Matrigel (Becton Dickinson Labware, Bedford, Mass.). […] Tubule formation was assessed by counting the number of tubule branches and the total area covered by tubules in each field of view using image analysis software supplied by Scion Image.

One sequence from patent US20040039157A1, “Anti-angiogenic peptides” (priority 2000, published 2004) can be followed below.

On to “ADSGEGDFLAEGGGVRGPRVVERH (ADSGEGDFLAEGGGVRGPRVVERH) [α1-24, 24 amino acid peptide from the amino terminus of the fibrinogen α chain]”, for which the final tumour volume in the assay with CT26 tumours (Example 1, day 14, starting volume 235±30, vehicle control final 2245±371) is 1341±145 mm^3; in the assay with CT26 tumours (Example 2, day 12, starting volume 338±39, vehicle control final 3072±255) it was 2029±504 mm^3. For the same sequence, the “tubule formation (area covered by tubules)” value in the assay on SVEC4-10 cells (absence of growth factors) and with SVEC4-10 cells (presence of growth factors (VEGF 10 ng/ml or bFGF 10 ng/ml)) was “significantly (p<0.03) reduced tubule formation” each time.
